Measurements as given in PMC10452266, “Divergent Pharmacology and Biased Signaling of the Four Melanocortin-4 Receptor Isoforms in Rainbow Trout (Oncorhynchus mykiss)” (Biomolecules, 2023).
Entries after “also recorded” stand apart in the source; their conditions may differ.

Tests used:
omMc4ra2 [1] = assay: Ligand-binding assay (displacement of 125I-NDP-MSH), omMc4ra2; parameters: species or system rainbow trout (Oncorhynchus mykiss); conditions: AgRP 10^-12 to 10^-7 M, MCL0020 and Ipsen 5i 10^-11 to 10^-6 M, ML00253764 10^-10 to 10^-5 M, transfected HEK293T cells
Procedure: (§1) Human Embryonic Kidney (HEK) 293T cells, provided by American Type Culture Collection (Manassas, VA, USA), were cultured as described previously. Cells were plated into 24-well or 6-well plates pre-coated with 0.1% gelatin and transfected with plasmids by the calcium phosphate precipitation method.
(§2) A binding assay was conducted as described previously. […].
(§3) Binding assays were used to investigate the binding properties of omMc4rs. […].  Figure 6 Ligand-binding properties of omMc4rs. […]. Data are expressed as % of hMC4R binding ± range from duplicate measurements within one experiment. The curves are representative of at least three independent experiments.

omMc4ra2 [2] = assay: ERK1/2 phosphorylation assay, omMc4ra2; type: cell-based, rainbow trout (Oncorhynchus mykiss); conditions: 1 μM α-MSH, 10 nM AgRP, 1 μM MCL0020, 1 μM Ipsen 5i or 1 μM ML00253764, 5 min, HEK293T, Western blot, at least three independent experiments
Procedure: as §1
(§4) HEK293T cells were transfected with omMC4Rs. Twenty-four hours after transfection, cells were washed twice and starved in media without serum for 24 h. […] Rabbit anti-pERK1/2 antibody (Catalog #4370, Cell Signaling, Beverly, MA, USA) and mouse anti-β-tubulin antibody (Developmental Studies Hybridoma Bank, University of Iowa, Iowa City, IA, USA) were used in this study. The bound antibodies were quantified using ImageJ 1.44 software (National Institute of Health, Bethesda, MD, USA).
(§5) Figure 9 ERK1/2 signaling properties of trout Mc4rs. (A) Immunoblots of pERK1/2 in cells expressing omMc4ra1, omMc4ra2, omMc4rb1, or omMc4rb2. HEK293T cells were transiently transfected with omMc4ra1, omMc4ra2, omMc4rb1, omMc4rb2, or empty vector plasmids and were starved overnight 24 h after transfection. […] Western blots were performed as described in Materials and Methods. (B) Densitometry results of basal pERK1/2 levels of omMc4ra1, omMc4ra2, omMc4rb1, and omMc4rb2. (C) Densitometry results of pERK1/2 level of omMc4ra1. (D) Densitometry results of pERK1/2 level of omMc4ra2. […]

omMc4ra1 [3] = assay: ERK1/2 phosphorylation assay, omMc4ra1; type: cell-based, rainbow trout (Oncorhynchus mykiss); conditions: 1 μM α-MSH, 10 nM AgRP, 1 μM MCL0020, 1 μM Ipsen 5i or 1 μM ML00253764, 5 min, HEK293T, Western blot, at least three independent experiments
Procedure: as §1, §4, §5

omMc4ra1 [4] = assay: Ligand-binding assay (displacement of 125I-NDP-MSH), omMc4ra1; parameters: species or system rainbow trout (Oncorhynchus mykiss); conditions: AgRP 10^-12 to 10^-7 M, MCL0020 and Ipsen 5i 10^-11 to 10^-6 M, ML00253764 10^-10 to 10^-5 M, transfected HEK293T cells
Procedure: as §1, §2, §3

omMc4rb2 [5] = assay: Ligand-binding assay (displacement of 125I-NDP-MSH), omMc4rb2; parameters: species or system rainbow trout (Oncorhynchus mykiss); conditions: AgRP 10^-12 to 10^-7 M, MCL0020 and Ipsen 5i 10^-11 to 10^-6 M, ML00253764 10^-10 to 10^-5 M, transfected HEK293T cells
Procedure: as §1, §2, §3

omMc4ra1 [6] = assay: Effect of antagonists on basal cAMP level, omMc4ra1; type: cell-based, rainbow trout (Oncorhynchus mykiss); conditions: 10 nM AgRP, 1 μM MCL0020, 1 μM ML00253764 or 1 μM Ipsen 5i, 1 h, HEK293T, RIA, three independent experiments
Procedure: (§6) Cells were plated into 24-well or 6-well plates pre-coated with 0.1% gelatin and transfected with plasmids by the calcium phosphate precipitation method.
(§7) Intracellular cAMP levels were determined according to previous protocol.

hMC4R [7] = molecular target: T1, hMC4R (Homo sapiens, UniProt P32245); conditions: ref [15],[51]; cited from earlier work
T1 construct: expressed in transfected cells; host or cells: HEK293T

ciMc4r [8] = conditions: stated as similar to trout Mc4rs, ref [15],[51]; cited from earlier work
ricefield eel Mc4r [9] = system: ricefield eel Mc4r; parameters: method as in PMID 30075196, PMID 32615281; conditions: stated as similar to trout Mc4rs, ref [15],[51]; cited from earlier work
ciMc4r [10] = conditions: stated as similar to omMc4rs, ref [51]; cited from earlier work
Description: (§8) Numerous constitutively active mutants have been reported in several GPCRs, resulting in various human diseases, and inverse agonism will be vital for correcting the diseases caused by activating mutations in GPCRs. The constitutive activity of teleost Mc4r may have important physiological functions.

saMc4r [11] = conditions: stated as similar to omMc4rs, ref [51]; cited from earlier work
Description: as §8

omMc4rb2 [12] = assay: ERK1/2 phosphorylation assay, omMc4rb2; type: cell-based, rainbow trout (Oncorhynchus mykiss); conditions: 1 μM α-MSH, 10 nM AgRP, 1 μM MCL0020, 1 μM Ipsen 5i or 1 μM ML00253764, 5 min, HEK293T, Western blot, at least three independent experiments
Procedure: as §1, §4, §5

saMc4r [13] = conditions: stated as similar to trout Mc4rs, ref [15],[51]; cited from earlier work
ricefield eel Mc4r [14] = system: ricefield eel Mc4r; parameters: method as in PMID 30075196; conditions: ref [15]; cited from earlier work
omMc4rb1 [15] = assay: Ligand-binding assay (displacement of 125I-NDP-MSH), omMc4rb1; parameters: species or system rainbow trout (Oncorhynchus mykiss); conditions: AgRP 10^-12 to 10^-7 M, MCL0020 and Ipsen 5i 10^-11 to 10^-6 M, ML00253764 10^-10 to 10^-5 M, transfected HEK293T cells
Procedure: as §1, §2, §3

omMc4rb2 [16] = assay: Effect of antagonists on basal cAMP level, omMc4rb2; type: cell-based, rainbow trout (Oncorhynchus mykiss)
Procedure: as §6, §7

omMc4rb1 [17] = assay: Effect of antagonists on basal cAMP level, omMc4rb1; type: cell-based, rainbow trout (Oncorhynchus mykiss); conditions: 10 nM AgRP, 1 μM MCL0020, 1 μM ML00253764 or 1 μM Ipsen 5i, 1 h, HEK293T, RIA, three independent experiments
Procedure: as §6, §7

hMC4R [18] = molecular target: T1, hMC4R; conditions: ref [48],[51],[81]; cited from earlier work
Description: (§9) MC4R-mediated ERK1/2 signaling has a crucial role in the modulation of energy homeostasis. Although teleost Mc4rs have much higher basal activities in Gs-cAMP signaling, constitutive activation of ERK1/2 signaling is only observed in topmouth culter Mc4r but not in saMc4r and ciMc4r. […] Our data documented that these three compounds only activated ERK1/2 signaling of omMc4rb1 but not the other three omMc4rs (Figure 9).

ciMc4r [19] = conditions: ciMc4r (grass carp); ref [48],[51],[81]; cited from earlier work
Description: as §9

saMc4r [20] = conditions: saMc4r (spotted scat); ref [48],[51],[81]; cited from earlier work
Description: as §9

omMc4rb1 [21] = assay: ERK1/2 phosphorylation assay, omMc4rb1; type: cell-based, rainbow trout (Oncorhynchus mykiss)
Procedure: as §1, §4
Figure 9 ERK1/2 signaling properties of trout Mc4rs. (A) Immunoblots of pERK1/2 in cells expressing omMc4ra1, omMc4ra2, omMc4rb1, or omMc4rb2. HEK293T cells were transiently transfected with omMc4ra1, omMc4ra2, omMc4rb1, omMc4rb2, or empty vector plasmids and were starved overnight 24 h after transfection. […] Western blots were performed as described in Materials and Methods. (B) Densitometry results of basal pERK1/2 levels of omMc4ra1, omMc4ra2, omMc4rb1, and omMc4rb2. (C) Densitometry results of pERK1/2 level of omMc4ra1. (D) Densitometry results of pERK1/2 level of omMc4ra2. (E) Densitometry results of pERK1/2 level of omMc4rb1. (F) Densitometry results of pERK1/2 level of omMc4rb2.

hMC4R [22] = molecular target: T1, hMC4R; conditions: cited from earlier work
omMc4ra2 [23] = assay: Effect of antagonists on basal cAMP level, omMc4ra2; type: cell-based, rainbow trout (Oncorhynchus mykiss); conditions: 10 nM AgRP, 1 μM MCL0020, 1 μM ML00253764 or 1 μM Ipsen 5i, 1 h, HEK293T, RIA, three independent experiments
Procedure: as §6, §7

[24] = concluded from binding, cAMP and pERK1/2 results

T1 sequence (P32245 whole entry): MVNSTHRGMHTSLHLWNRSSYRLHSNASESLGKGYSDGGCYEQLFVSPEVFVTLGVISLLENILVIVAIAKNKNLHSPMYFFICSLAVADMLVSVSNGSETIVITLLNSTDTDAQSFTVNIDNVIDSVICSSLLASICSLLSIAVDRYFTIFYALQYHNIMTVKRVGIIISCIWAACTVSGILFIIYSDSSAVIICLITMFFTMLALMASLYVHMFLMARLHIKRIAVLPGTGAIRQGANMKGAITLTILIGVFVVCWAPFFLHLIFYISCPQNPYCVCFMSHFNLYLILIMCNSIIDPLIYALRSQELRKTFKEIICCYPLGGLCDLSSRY

**Q.** With `COc1ccc(Br)cc1CCc1c(F)cccc1C1=NCCN1` [ML00253764, 2-[2-[2-(5-bromo-2-methoxyphenyl)-ethyl]-3-fluorophenyl]-4,5-dihydro-1H-imidazol] as the molecule, how does the “displacement of 125I-NDP-MSH binding” value (omMc4ra2 [1]) read?
**A.** could not displace

**Q.** What about the “effect on ERK1/2 phosphorylation” value (omMc4ra2 [2]) of the same molecule?
**A.** no effect

**Q.** And the “effect on ERK1/2 phosphorylation” value (omMc4ra1 [3])?
**A.** not by ML00253764, Ipsen 5i, or MCL0020

**Q.** And the “displacement of 125I-NDP-MSH binding” value (omMc4ra1 [4])?
**A.** could not displace

**Q.** And the “displacement of 125I-NDP-MSH binding” value (omMc4rb2 [5])?
**A.** could not displace

**Q.** What about the “effect on basal cAMP level” value (omMc4ra1 [6]) of the same molecule?
**A.** did not cause significant effects on the cAMP levels

**Q.** What about the “orthosteric binding” value (hMC4R [7]) of the same molecule?
**A.** bind to hMC4R orthosterically

**Q.** And the “orthosteric binding by displacing radiolabeled NDP-MSH” value (ciMc4r [8])?
**A.** neither ML00253764 nor Ipsen 5i bound

**Q.** What about the “orthosteric binding by displacing radiolabeled NDP-MSH” value (ricefield eel Mc4r [9]) of the same molecule?
**A.** neither ML00253764 nor Ipsen 5i bound

**Q.** And the “effect on cAMP levels” value (ciMc4r [10])?
**A.** did not cause significant effects on the cAMP levels

**Q.** What about the “effect on cAMP levels” value (saMc4r [11]) of the same molecule?
**A.** did not cause significant effects on the cAMP levels

**Q.** What about the “effect on ERK1/2 phosphorylation” value (omMc4rb2 [12]) of the same molecule?
**A.** no effect

**Q.** And the “orthosteric binding by displacing radiolabeled NDP-MSH” value (saMc4r [13])?
**A.** neither ML00253764 nor Ipsen 5i bound

**Q.** What about the “basal cAMP generation” value (ricefield eel Mc4r [14]) of the same molecule?
**A.** could decrease basal cAMP generation

**Q.** What about the “displacement of 125I-NDP-MSH binding” value (omMc4rb1 [15]) of the same molecule?
**A.** could not displace

**Q.** What about the “effect on basal cAMP level” value (omMc4rb2 [16]; 10 nM AgRP, 1 μM MCL0020, 1 μM ML00253764 or 1 μM Ipsen 5i, 1 h, HEK293T, RIA, three independent experiments) of the same molecule?
**A.** acted as an agonist for omMcrb2 and significantly increasing the cAMP levels; also recorded: did not cause significant effects on the cAMP levels; also recorded: could stimulate cAMP signaling

**Q.** And the “biased signaling, cAMP versus ERK1/2” value (omMc4rb2 [16]; [24])?
**A.** allosteric agonist for omMc4rb2, preferentially activating Gs-cAMP signaling

**Q.** And the “effect on basal cAMP level” value (omMc4rb1 [17])?
**A.** did not cause significant effects on the cAMP levels

**Q.** And the “biased signaling, Gs-cAMP versus ERK1/2” value (hMC4R [18])?
**A.** preferred activation on ERK1/2 signaling

**Q.** And the “biased signaling, Gs-cAMP versus ERK1/2” value (ciMc4r [19])?
**A.** preferred activation on ERK1/2 signaling

**Q.** And the “biased signaling, Gs-cAMP versus ERK1/2” value (saMc4r [20])?
**A.** preferred activation on ERK1/2 signaling

**Q.** And the “effect on ERK1/2 phosphorylation” value (omMc4rb1 [21]; 1 μM α-MSH, 10 nM AgRP, 1 μM MCL0020, 1 μM Ipsen 5i or 1 μM ML00253764, 5 min, HEK293T, Western blot, at least three independent experiments)?
**A.** significantly increased

**Q.** What about the “biased signaling, cAMP versus ERK1/2” value (omMc4rb1 [21]; [24]) of the same molecule?
**A.** biased allosteric modulators for omMc4rb1 with selective activation on ERK1/2 signaling

**Q.** And the “basal activities of WT and constitutively active MC4R mutants” value (hMC4R [22]; WT and mutants, ref [48],[51],[57],[58],[80])?
**A.** decrease the basal activities

**Q.** And the “basal activity of hMC4R and constitutively active mutant hMC4Rs” value (hMC4R [22]; hMC4R and mutants, ref [1],[28],[48],[51])?
**A.** reduced by inverse agonists

**Q.** And the “effect on basal cAMP level” value (omMc4ra2 [23])?
**A.** did not cause significant effects on the cAMP levels
